Reference: patent US8283324B2, “Immunomodulatory and anti-tumour peptides” (Centro de Ingenieria Genetica y Biotecnologia, priority 2006, dated 2012)
Blank lines part the entries; values can stand above or below the sequence they belong to.

Experiments:
[1] = competition ELISA for heparin-binding capacity; settings: for heparin binding: peptides at 2 μM with 250 units of heparin, FIG. 2
Experimental: This assay consists on a competition ELISA system, similar to the previously described one. The biotinylated LALF32-51 peptide was adsorbed to polystyrene plates (Costar, USA) in 1×PBS and incubated overnight at 4° C. Analogous peptides L-2, L-8, L-12 and L-20 were mixed at 2 μM with 250 units of heparin (Sodic Heparin, 5,000 U/ml, Liorad) in 1×PBS plus 0.1% of bovine serum albumin (BSA). Afterwards, mixes were added to an ELISA plate containing 0.02 μM of the biotinylated LALF32-51 peptide adsorbed to the solid surface. After a 1 h-incubation at room temperature, plates were washed five times with washing solution and the biotinylated LALF32-51 peptide fixed to the solid surface was detected by incubating for 45 min at 37° C. with streptavidin-peroxidase conjugate at a 1:2,000. Afterwards, plates were washed five times with washing solution and the substrate solution was added. After an additional incubation for 15 min, the reactions were stopped with 2 M sulphuric acid solution. The lack of heparin binding to the analogous peptides correlates with the […] optical density, because they are unable to displace the heparin bound to the biotinylated LALF32-51 peptide adsorb to the solid surface. The unlabeled LALF32-51 peptide at a 100× molar excess was used as control of the assay.

[2] = competition ELISA for LPS-binding capacity; set-up: species or system E. coli; settings: competition with biotinylated LALF32-51 at 0.2 μM; analogous peptides 10 μM to 0.01 μM; FIG. 1A
Experimental: This assay consists on a competition ELISA system (Hardy E., et al (1994) Enhanced ELISA sensitivity using TCA for efficient coating of biologically active LPS or Lipid A to the solid phase. J. Immunol. Meth. Vol. 176:111-116). Polystyrene plates (Costar, USA) were coated with LPS from E. coli 0111:B4 (1 μg/ml) with 0.2% trichloroacetic acid (TCA). Plates were incubated overnight at 37° C. and further washed ten times with 1× phosphate-buffered saline (1×PBS) plus 0.1% tween-20 (washing solution). The binding of analogous peptides to the LPS fixed to the solid surface was evaluated by a competition ELISA with the biotinylated LALF32-51 peptide at 0.2 μM, obtaining a 90% of maximum LPS binding. To estimate the inhibition curves, different concentrations of the analogous peptides were used, from 10 μM to 0.01 μM and the curve of the LALF32-51 peptide as experimental control. The biotinylated LALF32-51 was incubated in the presence of the analogous peptides for 2 h at 37° C. and plates were washed 5 times after that time with washing solution. The biotinylated LALF32-51 bound to LPS was detected by incubating for 45 min at 37° C. with a streptavidin-peroxidase conjugate at a 1:2,000 dilution. Plates were washed 5 times with washing solution and the substrate solution was added (0.05 M citrate-phosphate buffer, pH 5.5, 1 tablet of 3,3′,5,5′-tetramethylbenzidine and 0.025% hydrogen peroxide). After 15 min incubation, the reaction was stopped by adding 2 M sulphuric acid. The absorbance was quantified at 450 nm in a plate reader (Sensident Scan). There is a correlation between optical density values and the LPS-binding capacity of analogous peptides. Analogous peptides with higher LPS-binding capacity show inhibition curves of lower O.D. compared to the inhibition curve of the LALF32-51 peptide.
Analogous peptides with lower LPS-binding capacity present inhibition curves with […], compared to the inhibition curve of the LALF32-51 peptide.
FIG. 1B represents the inhibition percentages of analogous peptides, at a fixed […] concentration, according to their capacity to displace the binding of the biotinylated LALF32-51 (0.2 μM) to LPS adsorbed to the solid surface. % de inhibición={1−(([O.D.]sample−[O.D.]min)/([O.D.]max−[O.D.]min))}×100 [O.D.] sample: Optical density value in the presence of a fixed concentration of analogous peptides; [O.D.] min: ELISA background; [O.D.] max: Optical density value without analogous peptides.

[3] = system: IFN-α gene; assay: IFN-α gene expression in human mononuclear cells (RT-PCR); format: cell-based; settings: 40 μg/ml, 18 h; for expression of the IFN-α gene compared to the LALF32-51 peptide: FIG. 3B; for expression of the IFN-α gene: mRNA normalized against β-actin, FIG. 3A
Experimental: (§1) For this assay, human mononuclear cells were isolated by a Ficoll-Hypaque gradient from a leukocyte concentrate or “Buffy Coat” of a donor. Up to 5×10^6 were seeded in 24-well plates in RPMI 1640 medium supplemented with 10% calf fetal serum. Each peptide was further added at 40 μg/ml in a 0.1 ml volume of RPMI medium and cells were cultured for 18 h at 37° C. and 5% of CO2. Total RNA was extracted by using the TriReagent method. Afterwards, the expressions of IFN-α, IFN-γ and IL-12 genes were determined by the reverse transcription reaction and PCR amplification (RT-PCR kit, Perkin Elmer). Results are shown as relative amounts of messenger RNA normalized against expression levels of the β-actin housekeeping gene.

[4] = system: IFN-γ gene; assay: IFN-γ gene expression in human mononuclear cells (RT-PCR); format: cell-based; settings: 40 μg/ml, 18 h; mRNA normalized against β-actin; FIG. 3A
Experimental: as §1

[5] = system: IL-12 gene; assay: IL-12 gene expression in human mononuclear cells (RT-PCR); format: cell-based; settings: 40 μg/ml, 18 h; mRNA normalized against β-actin; FIG. 3A
Experimental: as §1

[6] = system: TC-1 tumor cells; assay: anti-tumoral effect in the TC-1 tumor model; format: in vivo; settings: 4 mg per kg s.c.; for survival of mice / tumor progression (tumor mass): at 100 mm^3 tumor volume and after 10 days, FIG. 4; for survival of animals compared to the LALF32-51 peptide: Log Rank, *p<0.05
Experimental: Eight-to-ten weeks-old C57BI/6 female mice were used for this assay (n=10 animals per experimental group). For tumor graft, TC-1 tumor cells derived from C57BI/6 malignant epithelial lung cells were used, being resuspended in phosphate-buffered saline (PBS). An amount of 50,000 cells in a 200 μl volume was inoculated to mice by subcutaneous route in the right hind limb. The first peptide administration was carried out by subcutaneous route in the right flank once tumor reached a 100 mm^3 volume, and the second was carried out after 10 days. In this assay, a 4 mg per kg of weight dose was evaluated (80 μg/mice). Animal survival and tumor mass were the parameters evaluated to measure the anti-tumoral effect peptides of interest, as shown in FIGS. 4A and 4B. […] The Log Rank method was used as statistical analysis for detecting significant differences between groups.

heparin binding (assay control) ([1]; unlabeled peptide at a 100× molar excess): binding to heparin
Sequence: HYRIKPTFRRLKWKYKGKFW [LALF32-51, reference compound]

Sequence: HYRIKPTARRLKWKYKGKFW [Peptide L-8, alanine-substituted analogue of LALF 32-51]
LPS-binding capacity [2]: lose the capacity to bind LPS
heparin binding [1]: unable to bind heparin
expression of the IFN-α gene compared to the LALF32-51 peptide [3]: more effective
expression of the IFN-α gene [3]: capable of inducing the expression
expression of the IFN-γ gene [4]: capable of inducing the expression
expression of the IL-12 gene [5]: capable of inducing the expression
survival of mice [6]: prolonging survival of mice
tumor progression (tumor mass) [6]: effective for inhibiting tumor progression
survival of animals compared to the LALF32-51 peptide [6]: significantly increase the survival of animals

Sequence: HYRIKPTFRRLAWKYKGKFW [Peptide L-12, alanine-substituted analogue of LALF 32-51]
LPS-binding capacity [2]: lose the capacity to bind LPS
heparin binding [1]: unable to bind heparin
expression of the IFN-α gene compared to the LALF32-51 peptide [3]: more effective
expression of the IFN-α gene [3]: capable of inducing the expression
expression of the IFN-γ gene [4]: capable of inducing the expression
expression of the IL-12 gene [5]: capable of inducing the expression
survival of mice [6]: prolonging survival of mice
tumor progression (tumor mass) [6]: effective for inhibiting tumor progression
survival of animals compared to the LALF32-51 peptide [6]: significantly increase the survival of animals

Sequence: HYRIKPTFARLKWKYKGKFW [Peptide L-9, alanine-substituted analogue of LALF 32-51]
LPS-binding capacity [2]: retaining that capacity

Sequence: HYRIKPTFRRLKWKYKGKFA [Peptide L-20, alanine-substituted analogue of LALF 32-51]
LPS-binding capacity [2]: lose the capacity to bind LPS
heparin binding [1]: unable to bind heparin
expression of the IFN-α gene [3]: capable of inducing the expression
expression of the IFN-γ gene [4]: capable of inducing the expression
expression of the IL-12 gene [5]: capable of inducing the expression
survival of mice [6]: prolonging survival of mice
tumor progression (tumor mass) [6]: effective for inhibiting tumor progression
survival of animals compared to the LALF32-51 peptide [6]: significantly increase the survival of animals

Sequence: HYAIKPTFRRLKWKYKGKFW [Peptide L-3, alanine-substituted analogue of LALF 32-51]
LPS-binding capacity [2]: higher LPS binding capacity

Sequence: HYRIKPTFRRLKWKYKGKAW [Peptide L-19, alanine-substituted analogue of LALF 32-51]
LPS-binding capacity [2]: retaining that capacity
